The values that follow come from patent US8314082B2, “Stilbene derivatives for ADP-ribosyl cyclase inhibitors” (Industrial Cooperation Foundation Chonbuk National …, priority 2006, dated 2012).

For assay [1], the system named is Ang II induced [Ca^2+]i increase in murine mesangial cells (MMCs). As to the kind of experiment: Ang II-mediated [Ca2+]i increase in MMCs. The note with it: Mus musculus, Mesangial cell, later sustained Ca2+ signal induced by 150 nM Ang II, 300 s, read-out: IC50([Ca^2+]i, uM) (means ± SEM). The class given is cell-based. The method, then: Changes in [Ca^2+]i in MMCs were determined as described previously [Kim et al., Exp. Mol. Med. (2006)38:535-45]. Briefly, MMCs cultured on confocal dishes for 48 h at a concentration of 10^4 cells/dish were washed with Hank's balanced salt solution (HBSS) (2 mM CaCl2, 145 mM NaCl, 5 mM KCl, 1 mM MgCl2, 5 mM D-glucose, and 20 mM HEPES, pH 7.3) and then loaded with […] Fluo 3-AM (Molecular Probe, Eugene, Oreg.). Changes in Ca^2+ fluorescence were determined at 488 nm/530 nm (excitation/emission) by air-cooled argon laser system. [Ca^2+]i was calculated using a Kd of 325 nM for Fluo 3-AM by the method of Tsien et al. (1982).

Assay [2] has as its system Ang II induced cADPR production in murine mesangial cells (MMCs). In words: Ang II-induced intracellular cADPR concentration in MMCs. Type of assay: cell-based. The note with it: Mus musculus, Mesangial cell, read-out: IC50([CADPR]i, uM) (means ± SEM). The method, then: [cADPR]i was measured using a cyclic enzymatic assay as described previously [Graeff et al., Biochem. J. (2002)361:379-84]. Aplysia californica ADPR-cyclase was purified from […] according to the method described [Lee et al., Cell Regul. (1991)2:203-9]. Briefly, MMCs were treated with 0.3 ml of 0.6 M perchloric acid under sonication after Ang II treatment. Precipitates were removed by centrifugation at 20,000×g for 10 min. Perchloric acid was removed by mixing the aqueous sample with a solution containing 3 volumes of 1,1,2-trichlorotrifluoroethane to 1 volume of tri-n-octlyamine. After centrifugation for 10 min at 1500×g, the aqueous layer was collected and neutralized with 20 mM sodium phosphate (pH 8). To remove all contaminating nucleotides, the samples were incubated with the following hydrolytic enzymes overnight at 37° C.: 0.44 unit/ml nucleotide pyrophosphatase, 12.5 units/ml alkaline phosphatase, 0.0625 unit/ml NADase, and 2.5 mM MgCl2 in 20 mM sodium phosphate buffer (pH 8.0). Enzymes were removed by filtration using Centricon-3 filters. To convert cADPR to NAD^+, the samples (0.1 ml/tube) were incubated with […] of a cycling reagent containing 0.3 mg/ml Aplysia ADPR-cyclase, 30 mM nicotinamide, and 100 mM sodium phosphate (pH 8) at room temperature for 30 min. The samples were further incubated with the cycling reagent (0.1 ml) containing 2% ethanol, […] alcohol dehydrogenase, 20 mM resazurin, 10 mg/ml diaphorase, 10 mM riboflavin 5′-phosphate, 10 mM nicotinamide, 0.1 mg/ml BSA, and 100 mM sodium phosphate (pH 8.0) for 2 h at room temperature. An increase in the resorufin fluorescence was measured at 544 nm excitation and 590 nm emission using a fluorescence plate reader (Molecular Devices Corp., Spectra-Max GEMINI). Various known concentrations of cADPR were also included in the cycling reaction to generate a standard curve. […] Production of cADPR as well as later sustained Ca^2+ signal in response to Ang II was inhibited with different efficacy by these small molecules (Table 1). […] The order of IC50 was 4,4′-DAHB>resveratrol>azobenzene=piceatannol>2,2′-DAHB.

Another assay deals with STZ diabetic mice. In words: Diabetic nephropathy in STZ diabetes mouse model. Type of assay: in vivo. Particulars: 45 μg/kg i.p. once a day for 6 weeks, mean SE, n = 6. The method, then:
Male mice, weighing 20 25 g, were made diabetic by a single intravenous injection of STZ (65 mg/kg body weight) in 0.05 M citrate buffer (pH 4.8). At the same day, the control mice were injected with the citrate buffer. After 2 days, induction of diabetes was confirmed by tail blood glucose level measurement by using the LifeScan One Touch glucometer (Johnson & Johnson). The diabetic mice (>16 mM blood glucose) were randomly divided into two groups; 6 mice per group treated with vehicle (0.1% DMSO in saline, 100 μl) or DHAB (45 μg/kg body weight in 0.1% DMSO in saline, 100 μl) and resveratrol (45 μg/kg body weight in 0.1% DMSO in saline, 100 μl) administered by intraperitoneal injection once a day for 6 weeks. The control mice were 6 mice per group treated with the vehicle. On day 39, the mice were detained in individual metabolic cages for 24 h for urine collection. On day 42, the mice were anesthetized with diethyl ether, and blood samples were taken from the abdominal aorta. Bilateral kidneys were rapidly removed and weighed. Urine was gravimetrically collected, and urinary albumin concentrations were determined with an enzyme-linked immunosorbent assay using a murine microalbuminuria kit (Albuwell; Exocell, Philadelphia, Pa.). Urine and serum creatinine levels were measured using the QuantiChrom Creatinine Assay Kit (BioAssay Systems, Hayward, Calif.), following the manufacturer's protocol.

The mark [3] stands for this setting: cADPR production induced by 150 nM Ang II, 90 s, MMCs.

Read-outs that look alike come from different tables or passages of the source.

Regarding `c1ccc(N=Nc2ccccc2)cc1` [Azobenzene], the IC50 in assay [1] came to 10 ± 1.1 µM; in assay [2], 13 ± 2.1 µM.
Turning to `Oc1cc(O)cc(/C=C/c2ccc(O)c(O)c2)c1` [Piceatannol, 3,5,3′,4′-tetrahydroxy-trans-stilbene], the IC50 in assay [1] is 10 ± 1.7 µM; in assay [2] (setting [3]), 8.9 ± 1.5 µM.
Turning to `Oc1ccc(/C=C/c2cc(O)cc(O)c2)cc1` [Resveratrol, 3,5,4′-trihydroxy-trans-stilbene], in assay [1], the IC50 came to 5 ± 0.8 µM. Further, in assay [2] (setting [3]), the IC50 came out at 5.5 ± 0.5 µM. Moreover, in the assay on STZ diabetic mice (24 h metabolic cage), the Urine output was 2.55 ± 2.09 mL/day. Also, in the assay on STZ diabetic mice, the “Body Weight” value worked out at 22.6 ± 0.70 g, the Food intake stood at 3.12 ± 0.79 g, the Plasma glucose stood at 441 ± 48.7 mg/dL and the “Urinary Albumin” value was 2.97 ± 2.11 µg/day. Also, in the assay on STZ diabetic mice, the Water intake amounted to 5.67 ± 3.21 mL.
